Results on four molecules are retold here after patent publication US9006454B2, “Dihydroorotate dehydrogenase inhibitors” (Merck Serono S.A., priority 2009, dated 2015).

For assay [1], the system named is L1210 murine leukemia. The conditions noted are these: cited from earlier work.
Assay [2] relates to colon 38 tumor. The conditions noted are these: murine model colon 38 tumor; cited from earlier work.
Assay [3] addresses T1, DHODH (Homo sapiens (Human), UniProt Q02127). Kind of assay: DHODH activity assay (coupled enzyme assay, DCIP reduction, absorbance at 610 nm). Type of assay: biochemical. The conditions noted are these: compound at 10 uM; read-out: inh @ 10 uM hDHODH (%).
Target sequence in this assay (Q02127 whole entry): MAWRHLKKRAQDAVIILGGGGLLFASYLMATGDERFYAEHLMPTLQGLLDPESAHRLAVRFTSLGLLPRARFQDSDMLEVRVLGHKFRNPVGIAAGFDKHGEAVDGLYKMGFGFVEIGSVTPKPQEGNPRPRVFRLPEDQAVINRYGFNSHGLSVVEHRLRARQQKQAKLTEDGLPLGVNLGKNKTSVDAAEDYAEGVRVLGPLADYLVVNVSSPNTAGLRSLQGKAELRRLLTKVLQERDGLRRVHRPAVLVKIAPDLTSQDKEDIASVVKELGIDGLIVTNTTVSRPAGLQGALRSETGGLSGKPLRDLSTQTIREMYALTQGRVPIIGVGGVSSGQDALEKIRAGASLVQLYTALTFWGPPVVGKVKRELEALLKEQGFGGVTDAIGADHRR
Assay [4] deals with Jurkat cells. Kind of assay: Measurement of cell proliferation (Jurkat cell), XTT assay. Type of assay: cell-based. As to conditions: Homo sapiens, Jurkat; compound at 1 uM; read-out: % inh Jurkat_cells @ 1 uM (%). Put shortly:
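Jurkat T cells, 100,000 per well in RPMI with 10% FBS, exposed 72 h at 37 °C to serial compound dilutions (typically from 10 μM, half-log steps, triplicate) at 0.25–0.5% DMSO. Viability by XTT/PMS, A465 after 2 h, media background subtracted, untreated cells as 100%; EC50 from curve fit.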
A general note: Formazan colour is commonly taken as a measure of viable cells.

Assay [5] has as its target T1, DHODH. The conditions noted are these: cited from earlier work.
Target sequence in this assay (Q02127 whole entry, species assumed): as the sequence (Q02127 whole entry) above
Assay [6] deals with spleen colony-forming units (CFU). As to conditions: cited from earlier work.
Assay [7] concerns experimental allergic encephalomyelitis (EAE). The conditions noted are these: oral, from 10 days after inoculation; Teriflunomide 3 and 10 mg/kg, dexamethasone 1 mg/kg; cited from earlier work.
Assay [8] has as its system multiple sclerosis with relapses. The conditions noted are these: once-daily oral 7 and 14 mg; cited from earlier work.

Each structure is given as a SMILES string.

Consider `Cc1c(-c2ccc(-c3ccccc3F)cc2)nc2ccc(F)cc2c1C(=O)O` [Brequinar, 6-Fluoro-2-(2′-fluoro[1,1′-biphenyl]-4-yl)-3-methyl-4-quinolinecarboxylic Acid], for which the “anticancer activity towards L1210 murine leukemia” value in assay [1] is given as “exhibits an anticancer activity”. Moreover, the “potentiation of 5-fluorouracil antitumor activity” value in assay [2] is listed as “potentiates 5-fluorouracil antitumor activity”.

As for `O=C(O)c1cccc2[nH]c(-c3ccc(-c4cccs4)cc3)nc12` [I192], the inhibition at 10 µM in assay [3] amounted to 74.7%. For the same molecule, in assay [4], the inhibition at 1 µM was 26.1%.

Consider `C/C(O)=C(\C#N)C(=O)Nc1ccc(C(F)(F)F)cc1` [Teriflunomide], for which, in assay [5], the “fold greater inhibitor of DHODH than of protein tyrosine kinase” value is 100-1,000 fold. Further, the CFU cycling result in assay [6] was “inhibited CFU cycling”. Besides, the “onset of disease and symptom severity in EAE” value in assay [7] was “significant delay in the onset of disease and in symptom severity”. Further, the “number of unique active lesions compared to placebo” value in assay [8] is on record as “reduced number of unique active lesions”.

Take `C[C@@H]1C[C@H]2[C@@H]3CCC4=CC(=O)C=C[C@]4(C)[C@@]3(F)[C@@H](O)C[C@]2(C)[C@@]1(O)C(=O)CO` [dexamethasone]: in assay [7], the “onset of disease and symptom severity in EAE” value is “significant delay in the onset of disease and in symptom severity”.
